The test system of series [1] is spontaneously hypertensive rats. As to the kind of experiment: Hypotensive activity in male spontaneously hypertensive rats (oral). In kind it is in vivo, rat. Conditions: systolic pressure at tail vein, oral 10 mg/kg.
Procedure: Hypotensive activity [Method] Male spontaneously hypertensive rats at the 12th to 16th week in age and presenting a systolic pressure of around 200 mmHg were used as experimental animals, and 3 to 8 animals were assigned to each group. The subject compound (indicated by the example number), in an aqueous solution or 5% gum arabic suspension, was orally administered in a dose of 10 mg/kg. At the 4th and 8th hours following the administration, the systolic pressure at tail vein of each rat was noninvasively measured by means of a sphygmomanometer (USM-105, Ueda Seisakusho, Japan). A group of rats administered the solvent alone was used as a control group.
Gum arabic or water was administered to rats of the control group.
The next series in a line: Water solubility test. Format: physicochemical. Conditions: powdered, 20°±5° C., within 30 minutes, read-out: Amount (ml) of water required to dissolve 1 g of the subject compounds (converted). The protocol: The subject compounds (indicated by the example number), after being powdered, were placed in water and vigorously shaken at 20°±5° C. for 30 seconds a 5-minute intervals, and within 30 minutes, the amount of water required to dissolve 1 g of the compound (I) of the present invention therein was measured.

Converted amounts (≈) assume the structure as drawn. Structures can show the parent of a compound that is named as a salt.

In the case of `COC(=O)C1=C(C)NC(C)=C(C(=O)OCC(C)(C)CN2CCN(CCN3CCCCC3)CC2)C1c1cccc([N+](=O)[O-])c1` (centres unmarked) [Example 16], in series [1], the “Change in blood pressure, 4 hours after administration” value (“Change in blood pressure, 4 hours” below) is on record as -34 mmHg and the “Change in blood pressure, 8 hours after administration” value (shortened to “Change in blood pressure, 8 hours”) is recorded as -52 mmHg. Moreover, in “Water solubility test”, the solubility at 0.5 h was 500 mg/mL (≈ 836 mM).

As for `COC(=O)C1=C(C)NC(C)=C(C(=O)OCC(C)(C)CN2CCN(CCC#N)CC2)C1c1cccc([N+](=O)[O-])c1` (centres unmarked) [Example 14, 2,2-Dimethyl-3-[4-(2-cyanoethyl)-1-piperazinyl]propyl Methyl 1,4-Dihydro-2,6-dimethyl-4-(3-nitrophenyl)-3,5-pyridinedicarboxylateDihydrochloride], in series [1], the “Change in blood pressure, 4 hours” value is on record as -43 mmHg and the “Change in blood pressure, 8 hours” value is -88 mmHg. For the same molecule, the solubility at 0.5 h in the series “Water solubility test” was 500 mg/mL.

With `COC(=O)C1=C(C)NC(C)=C(C(=O)OCC(C)(C)CN2CCN(CC#N)CC2)C1c1cccc([N+](=O)[O-])c1.Cl.Cl` (centres unmarked) [Example 23, 3-(4-Cyanomethyl-1-piperazinyl)-2,2-dimethylpropyl methyl 2,6-dimethyl-4-(m-nitrophenyl)-1,4-dihydropyridine-3,5-dicarboxylate dihydrochloride], in series [1], the “Change in blood pressure, 4 hours” value was -104 mmHg and the “Change in blood pressure, 8 hours” value was -82 mmHg. In the series “Water solubility test”, the solubility at 0.5 h was 500 mg/mL.

As for `COC(=O)C1=C(C)NC(C)=C(C(=O)OCC(C)(C)CN2CCN(CC=Cc3ccccc3)CC2)C1c1cccc([N+](=O)[O-])c1.Cl.Cl` (centres unmarked) [Example 13, 2,2-Dimethyl-3-(4-cinnamyl-1-piperazinyl)propyl Methyl 1,4-Dihydro-2,6-dimethyl-4-(3-nitrophenyl)-3,5-pyridinedicarboxylate Dihydrochloride], in series [1], the “Change in blood pressure, 4 hours” value is on record as -69 mmHg and the “Change in blood pressure, 8 hours” value is given as -77 mmHg.

On to `COC(=O)C1=C(C)NC(C)=C(C(=O)OCCN(C)Cc2ccccc2)C1c1cccc([N+](=O)[O-])c1` (centres unmarked) [Nicardipine, nicardipine, reference compound], for which, in series [1], the “Change in blood pressure, 4 hours” value is reported as -29 mmHg and the “Change in blood pressure, 8 hours” value is reported as -22 mmHg. Also, the solubility at 0.5 h in “Water solubility test” was 6.25 mg/mL (≈ 13 mM).

With `COC(=O)C1=C(C)NC(C)=C(C(=O)OCC(C)(C)CN2CCN(CCO[N+](=O)[O-])CC2)C1c1cccc([N+](=O)[O-])c1` (centres unmarked) [Example 24], in series [1], the “Change in blood pressure, 4 hours” value was -91 mmHg and the “Change in blood pressure, 8 hours” value is listed as -69 mmHg. In addition, in “Water solubility test”, the solubility at 0.5 h was 500 mg/mL (≈ 869 mM).

In the case of `C=C(C)CN1CCN(CC(C)(C)COC(=O)C2=C(C)NC(C)=C(C(=O)OC)C2c2cccc([N+](=O)[O-])c2)CC1` (centres unmarked) [Example 17], in series [1], the “Change in blood pressure, 4 hours” value was -112 mmHg and the “Change in blood pressure, 8 hours” value is recorded as -107 mmHg. The solubility at 0.5 h in “Water solubility test” is 312 mg/mL (≈ 578 mM).

With `COC(=O)C1=C(C)NC(C)=C(C(=O)OCC(C)(C)CN2CCN(C(=O)C=Cc3ccccc3)CC2)C1c1cccc([N+](=O)[O-])c1` (centres unmarked) [Example 7], in series [1], the “Change in blood pressure, 4 hours” value is given as -76 mmHg and the “Change in blood pressure, 8 hours” value is on record as -84 mmHg.

For the molecule `COC(=O)C1=C(C)NC(C)=C(C(=O)OCC(C)(C)CN2CCN(CC(=O)N3CCCC3)CC2)C1c1cccc([N+](=O)[O-])c1` (centres unmarked) [Example 26], in series [1], the “Change in blood pressure, 4 hours” value is on record as -53 mmHg and the “Change in blood pressure, 8 hours” value was -32 mmHg. Moreover, the solubility at 0.5 h in the series “Water solubility test” is 500 mg/mL (≈ 837 mM).

On to `COC(=O)C1=C(C)NC(C)=C(C(=O)OCC(C)(C)CN2CCN(C(=O)c3ccccc3)CC2)C1c1cccc([N+](=O)[O-])c1.Cl` (centres unmarked) [Example 6, 2,2-Dimethyl-3-(4-benzoyl-1-piperazinyl)propyl Methyl 1,4-Dihydro-2,6-dimethyl-4-(3-nitrophenyl)-3,5-pyridinedicarboxylate Hydrochloride], for which, in series [1], the “Change in blood pressure, 4 hours” value is listed as -64 mmHg and the “Change in blood pressure, 8 hours” value is reported as -88 mmHg.

Turning to `CCOC(=O)CN1CCN(CC(C)(C)COC(=O)C2=C(C)NC(C)=C(C(=O)OC)C2c2cccc([N+](=O)[O-])c2)CC1` (centres unmarked) [Example 25], the solubility at 0.5 h in the series “Water solubility test” is 500 mg/mL (≈ 873 mM).

As for `C#CCN1CCN(CC(C)(C)COC(=O)C2=C(C)NC(C)=C(C(=O)OC)C2c2cccc([N+](=O)[O-])c2)CC1` (centres unmarked) [Example 12], in series [1], the “Change in blood pressure, 4 hours” value was -70 mmHg and the “Change in blood pressure, 8 hours” value is on record as -102 mmHg. The solubility at 0.5 h in “Water solubility test” is 500 mg/mL (≈ 953 mM).

Consider `C#CCCCN1CCN(CC(C)(C)COC(=O)C2=C(C)NC(C)=C(C(=O)OC)C2c2cccc([N+](=O)[O-])c2)CC1.Cl.Cl` (centres unmarked) [Example 21, 2,2-Dimethyl-3-[4-(4-pentynyl)-1-piperazinyl]propyl Methyl 1,4-Dihydro-2,6-dimethyl-4-(3-nitrophenyl)-3,5-pyridinedicarboxylate Dihydrochloride], for which, in series [1], the “Change in blood pressure, 4 hours” value was -112 mmHg and the “Change in blood pressure, 8 hours” value is reported as -98 mmHg. Moreover, the solubility at 0.5 h in the series “Water solubility test” was 500 mg/mL.

As for `CC=CCN1CCN(CC(C)(C)COC(=O)C2=C(C)NC(C)=C(C(=O)OC)C2c2cccc([N+](=O)[O-])c2)CC1.Cl.Cl` (centres unmarked) [Example 20, 2,2-Dimethyl-3-[4-(2-butenyl)-1-piperazinyl]propyl Methyl 1,4-Dihydro-2,6-dimethyl-4-(3-nitrophenyl)-3,5-pyridinedicarboxylate Dihydrochloride], in series [1], the “Change in blood pressure, 4 hours” value is reported as -84 mmHg and the “Change in blood pressure, 8 hours” value is -82 mmHg. The solubility at 0.5 h in the series “Water solubility test” is 625 mg/mL.

For the molecule `COC(=O)C1=C(C)NC(C)=C(C(=O)OCC(C)(C)CN2CCN(C(=O)Cc3ccccc3)CC2)C1c1cccc([N+](=O)[O-])c1` (centres unmarked) [Example 5], in series [1], the “Change in blood pressure, 4 hours” value is listed as -90 mmHg and the “Change in blood pressure, 8 hours” value is on record as -87 mmHg.

For the molecule `CNC(=O)CN1CCN(CC(C)(C)COC(=O)C2=C(C)NC(C)=C(C(=O)OC)C2c2cccc([N+](=O)[O-])c2)CC1` (centres unmarked) [Example 27], in series [1], the “Change in blood pressure, 4 hours” value is -83 mmHg and the “Change in blood pressure, 8 hours” value is recorded as -60 mmHg. The solubility at 0.5 h in “Water solubility test” was 500 mg/mL (≈ 897 mM).

In the case of `COC(=O)C1=C(C)NC(C)=C(C(=O)OCC(C)(C)CN2CCN(C(C)C(C)=O)CC2)C1c1cccc([N+](=O)[O-])c1` (centres unmarked) [Example 19], in series [1], the “Change in blood pressure, 4 hours” value is reported as -86 mmHg and the “Change in blood pressure, 8 hours” value was -85 mmHg. In the series “Water solubility test”, the solubility at 0.5 h is 500 mg/mL (≈ 898 mM).

For the molecule `COC(=O)C1=C(C)NC(C)=C(C(=O)OCC(C)(C)CN2CCN(C(C)=O)CC2)C1c1cccc([N+](=O)[O-])c1` (centres unmarked) [Example 8], in series [1], the “Change in blood pressure, 4 hours” value is listed as -56 mmHg and the “Change in blood pressure, 8 hours” value is recorded as -90 mmHg.

Take `COC(=O)C1=C(C)NC(C)=C(C(=O)OCC(C)(C)CN2CCN(CCO)CC2)C1c1cccc([N+](=O)[O-])c1` (centres unmarked) [Example 15, 2,2-Dimethyl-3-[4-(2-hydroxyethyl)-1-piperazinyl]propyl Methyl 1,4-Dihydro-2,6-dimethyl-4-(3-nitrophenyl)-3,5-pyridinedicarboxylateDihydrochloride]: in series [1], the “Change in blood pressure, 4 hours” value was -52 mmHg and the “Change in blood pressure, 8 hours” value is -47 mmHg. The solubility at 0.5 h in “Water solubility test” is 500 mg/mL.

As to `C=CCN1CCN(CC(C)(C)COC(=O)C2=C(C)NC(C)=C(C(=O)OC)C2c2cccc([N+](=O)[O-])c2)CC1.Cl.Cl` (centres unmarked) [Example 2, 3-(4-allyl-1-piperazinyl)-2,2-dimethylpropyl methyl 2,6-dimethyl-4-(m-nitrophenyl)-1,4-dihydropyridine-3,5-dicarboxylate dihydrochloride], in series [1], the “Change in blood pressure, 4 hours” value is recorded as -81 mmHg and the “Change in blood pressure, 8 hours” value was -104 mmHg. In “Water solubility test”, the solubility at 0.5 h was 500 mg/mL.

The record behind these values is US4937242A, “1,4-dihydropyridine derivatives and pharmaceutical composition thereof” (Kyoto Pharmaceutical Industries, Ltd., priority 1987, dated 1990).
